# From ChEMBL document CHEMBL4715696, “In vitro synergistic anticancer activity of the combination of T-type calcium channel blocker and chemotherapeutic agent in A549 cells” (Bioorg Med Chem Lett, 2016)
# Experiments:
# A549 [1] = assay: Decrease in cell cycle associated protein expression in human A549 cells assessed as fold change in CDK2 expression at 10 uM after 36 hrs by Western blot analysis (reference value: 0.79); format: functional
# A549 [2] = assay: Potentiation of cisplatin-induced cell cycle arrest in human A549 cells assessed as accumulation at G1 phase at 5 uM in presence of cisplatin after 48 hrs by flow cytometric analysis (reference value: 14.4%); format: functional
compound,measurement,setting,value
CN(C)C(=O)NCCCN(C)C1=Nc2ccccc2C(CC(=O)NCc2ccc(F)cc2)N1c1ccc(C2CCCCC2)cc1 (configuration not stated),fold change (FC),A549 [1],0.71
same,Activity,A549 [2],24.5%
